Measured values as given in US20260201008A1, “SECRETIN-DERIVED GLP1R SELECTIVE AGONISTS” (GUBRA A/S, priority 2023, published 2026).
Where two headings read alike, the source gives them in different places. One block for each molecule: values may come before it. Numbered stars: 1 amine (or outer) side, 2 acyl side, 3 side chain; on linkers, the order of the positions; unused ones are H or OH. Square brackets hold non-standard residues; d marks the D form. Side chains are listed from the residue outwards. Ends that are not written are not given here. Peptide text beside a SMILES is read from it. * marks the point of attachment. C18 diacid = O=C(O)CCCCCCCCCCCCCCCCC(=O)*; γGlu = O=C(O)[C@H](CCC(=O)[*:2])N[*:1]; AEEA = NCCOCCOCC(=O)O; Aib = CC(C)(N)C(=O)O

Key:
GLP1R = GLP1R (Homo sapiens, UniProt P43220); test: hGLP1R potency, cAMP accumulation in CHO-K1 cells stably overexpressing hGLP1R; assay type: cell-based; parameters: host or cells: CHO-K1; conditions: for Selectivity: SCTR EC50/GLP1R EC50 ratio
Description: (§1) Crude library peptides are screened in 10-fold serial dilutions of 5 concentrations, n=1 time. Tip change is done for the first two serial dilutions. Compound starting concentration (top) will be adjusted throughout the study if needed.
(§2) Purified peptides are screened in 3-fold serial dilutions of 11 concentrations, n=2 times. Tip change is done for all serial dilutions. Compound starting concentration (top) will be adjusted throughout the study. If the top concentration is adjusted or a 5-fold difference in calculated EC50 values is observed, n is increased by 1. EC50 values were calculated by nonlinear regression using sigmoid concentration-response with variable slope.
(§3) A CHO-K1 cell line stably overexpressing the hGLP1R was obtained from Euroscreen (FAST-0145L), expanded, aliquoted and frozen. An aliquot was thawed and plated in DPBS with 0.05% casein and 0.5 mM IBMX as 2000 cells/well in a 384-well format. The cells were then immediately stimulated for 30 min at room temperature with graded doses of test compound using human GLP-1(7-36) (synthesized at Gubra) as a positive control. cAMP accumulation was measured using a Cisbio assay for Gs coupled receptors (cat. no. 62AM4PEC), where the assay reagents were added as per the manufacturer's instructions and time-resolved fluorescence energy transfer recorded after one hour on a CLARIOstar (BMG Labtech) plate reader.

SCTR = SCTR (Homo sapiens, UniProt P47872); test: hSCTR potency, cAMP accumulation in CHO-K1 cells stably overexpressing hSCTR; assay type: cell-based; parameters: alternatively Euroscreen ES-712-AF; FAST-0161L; host or cells: CHO-K1; conditions: read-out: pEC50 hSCTR (converted)
Description: as §1, §2
as §3, with “Frozen division arrested CHO-K1 cells stably overexpressing the hSCTR were obtained from PerkinElmer (ES-712-AF). Alternatively, a CHO-K1” for “A CHO-K1”, “the hSCTR” for “the hGLP1R”, “Euroscreen (FAST-0161L),” for “Euroscreen (FAST-0145L),”, “human secretin” for “human GLP-1(7-36)”

[1] = biological target: human secretin receptor (hSCTR) (human, UniProt P47872 23-440); test: cell-based or functional assay
[2] = Table 3, position X^10 variants of GUB06-046
[3] = Table 4, position X12 variants of GUB06-046
[4] = Table 4, position X12 variants of GUB06-046, read-out: pEC50 hGLPR1 (converted)
[5] = Table 2, extended 30 amino acid peptides
[6] = Table 2, extended 30 amino acid peptides, read-out: PEC50 hGLPR1 (converted)

Chain of SCTR (P47872 23-440): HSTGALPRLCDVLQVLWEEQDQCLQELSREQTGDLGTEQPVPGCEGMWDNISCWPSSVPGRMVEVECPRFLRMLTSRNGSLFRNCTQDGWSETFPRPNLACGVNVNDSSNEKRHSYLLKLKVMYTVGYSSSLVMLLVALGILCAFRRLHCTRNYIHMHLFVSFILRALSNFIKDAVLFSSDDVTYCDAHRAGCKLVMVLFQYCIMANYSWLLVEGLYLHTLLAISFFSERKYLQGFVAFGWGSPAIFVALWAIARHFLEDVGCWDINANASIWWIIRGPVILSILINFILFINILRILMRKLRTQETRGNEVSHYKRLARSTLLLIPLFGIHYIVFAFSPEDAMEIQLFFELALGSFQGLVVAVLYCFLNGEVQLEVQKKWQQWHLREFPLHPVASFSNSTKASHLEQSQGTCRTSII
Chain of GLP1R (P43220 24-463): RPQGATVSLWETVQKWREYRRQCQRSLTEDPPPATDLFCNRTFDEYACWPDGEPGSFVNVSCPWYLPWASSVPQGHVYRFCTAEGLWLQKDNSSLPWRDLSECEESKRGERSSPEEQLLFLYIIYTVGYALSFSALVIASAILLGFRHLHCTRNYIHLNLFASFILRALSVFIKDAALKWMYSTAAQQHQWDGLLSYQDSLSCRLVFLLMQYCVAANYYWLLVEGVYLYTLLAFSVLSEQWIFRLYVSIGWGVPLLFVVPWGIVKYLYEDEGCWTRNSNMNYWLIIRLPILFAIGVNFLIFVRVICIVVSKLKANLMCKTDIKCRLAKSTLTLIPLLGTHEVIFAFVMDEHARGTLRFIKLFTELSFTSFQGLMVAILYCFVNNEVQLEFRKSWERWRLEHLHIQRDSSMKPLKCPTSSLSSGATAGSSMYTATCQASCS
Chain of human secretin receptor (hSCTR) (P47872 23-440): as the sequence (P47872 23-440) above

Selectivity (GLP1R; [3]): 699 | EC50 (GLP1R; [4]): 0.0158 nM | EC50 (SCTR; [3]): 10 nM
Molecule: CC[C@H](C)[C@H](NC(=O)[C@H](Cc1ccccc1)NC(=O)[C@H](CCCNC(=N)N)NC(=O)[C@H](CCC(N)=O)NC(=O)[C@H](CC(C)C)NC(=O)[C@H](C)NC(=O)[C@H](C)NC(=O)CNC(=O)[C@H](CCC(=O)O)NC(=O)[C@H](CC(C)C)NC(=O)[C@H](CC(C)C)NC(=O)[C@H](Cc1ccc(O)cc1)NC(=O)[C@H](CO)NC(=O)[C@H](CC(C)C)NC(=O)[C@H](CC(=O)O)NC(=O)[C@H](CO)NC(=O)[C@@H](NC(=O)[C@H](Cc1ccccc1)NC(=O)[C@@H](NC(=O)CNC(=O)[C@H](CCC(=O)O)NC(=O)C(C)(C)NC(=O)[C@@H](N)Cc1c[nH]cn1)[C@@H](C)O)[C@@H](C)O)C(=O)N[C@@H](CCC(N)=O)C(=O)N[C@@H](Cc1c[nH]c2ccccc12)C(=O)N[C@@H](CC(C)C)C(=O)N[C@H](C(N)=O)C(C)C [compound 229] (H-H[Aib]EGTFTSDLSYLLEGAALQRFIQWLV-NH2)

Selectivity (GLP1R; [3]): 53 | EC50 (GLP1R; [4]): 0.0158 nM | EC50 (SCTR; [3]): 0.794 nM
Molecule: CC[C@H](C)[C@H](NC(=O)[C@H](Cc1ccccc1)NC(=O)[C@H](CCCNC(=N)N)NC(=O)[C@H](CCC(N)=O)NC(=O)[C@H](CC(C)C)NC(=O)[C@H](C)NC(=O)[C@H](C)NC(=O)CNC(=O)[C@H](CCC(=O)O)NC(=O)[C@H](CC(C)C)NC(=O)[C@H](CC(C)C)NC(=O)[C@H](Cc1c[nH]c2ccccc12)NC(=O)[C@H](CO)NC(=O)[C@H](CC(C)C)NC(=O)[C@H](CC(=O)O)NC(=O)[C@H](CO)NC(=O)[C@@H](NC(=O)[C@H](Cc1ccccc1)NC(=O)[C@@H](NC(=O)CNC(=O)[C@H](CCC(=O)O)NC(=O)C(C)(C)NC(=O)[C@@H](N)Cc1c[nH]cn1)[C@@H](C)O)[C@@H](C)O)C(=O)N[C@@H](CCC(N)=O)C(=O)N[C@@H](Cc1c[nH]c2ccccc12)C(=O)N[C@@H](CC(C)C)C(=O)N[C@H](C(N)=O)C(C)C [compound 228] (H-H[Aib]EGTFTSDLSWLLEGAALQRFIQWLV-NH2)

The next lines start with the molecule.

Molecule: CC[C@H](C)[C@H](NC(=O)[C@H](Cc1ccccc1)NC(=O)[C@H](CCCNC(=N)N)NC(=O)[C@H](CCC(N)=O)NC(=O)[C@H](CC(C)C)NC(=O)[C@H](C)NC(=O)[C@H](C)NC(=O)CNC(=O)[C@H](CCC(=O)O)NC(=O)[C@H](CC(C)C)NC(=O)[C@H](CC(C)C)NC(=O)[C@H](CCCNC(=N)N)NC(=O)[C@H](CO)NC(=O)[C@H](CC(C)C)NC(=O)[C@H](CC(=O)O)NC(=O)[C@H](CO)NC(=O)[C@@H](NC(=O)[C@H](Cc1ccccc1)NC(=O)[C@@H](NC(=O)CNC(=O)[C@H](CCC(=O)O)NC(=O)C(C)(C)NC(=O)[C@@H](N)Cc1c[nH]cn1)[C@@H](C)O)[C@@H](C)O)C(=O)N[C@@H](CCC(N)=O)C(=O)N[C@@H](Cc1c[nH]c2ccccc12)C(=O)N[C@@H](CC(C)C)C(=O)N[C@H](C(N)=O)C(C)C [compound 216] (H-H[Aib]EGTFTSDLSRLLEGAALQRFIQWLV-NH2)
Selectivity (GLP1R; [2]): 13 | Selectivity (GLP1R; [3]): 13 | EC50 (GLP1R; Table 3, position X^10 variants of GUB06-046, read-out: pEC50 hGLPR1 (converted)): 0.0398 nM | EC50 (GLP1R; [4]): 0.0398 nM | EC50 (SCTR; [2]): 0.501 nM | EC50 (SCTR; [3]): 0.501 nM

Molecule: CC[C@H](C)[C@H](NC(=O)[C@H](Cc1ccccc1)NC(=O)[C@H](CCCNC(=N)N)NC(=O)[C@H](CCC(N)=O)NC(=O)[C@H](CC(C)C)NC(=O)[C@H](C)NC(=O)[C@H](C)NC(=O)CNC(=O)[C@H](CCC(=O)O)NC(=O)[C@H](CC(C)C)NC(=O)[C@H](CC(C)C)NC(=O)[C@@H](NC(=O)[C@H](CO)NC(=O)[C@H](CC(C)C)NC(=O)[C@H](CC(=O)O)NC(=O)[C@H](CO)NC(=O)[C@@H](NC(=O)[C@H](Cc1ccccc1)NC(=O)[C@@H](NC(=O)CNC(=O)[C@H](CCC(=O)O)NC(=O)C(C)(C)NC(=O)[C@@H](N)Cc1c[nH]cn1)[C@@H](C)O)[C@@H](C)O)C(C)C)C(=O)N[C@@H](CCC(N)=O)C(=O)N[C@@H](Cc1c[nH]c2ccccc12)C(=O)N[C@@H](CC(C)C)C(=O)N[C@H](C(N)=O)C(C)C [compound 227] (H-H[Aib]EGTFTSDLSVLLEGAALQRFIQWLV-NH2)
Selectivity (GLP1R; [3]): 43 | EC50 (GLP1R; [4]): 0.0316 nM | EC50 (SCTR; [3]): 1.26 nM

Molecule: CC(C)C[C@H](NC(=O)[C@H](Cc1ccccc1)NC(=O)[C@H](CCCNC(=N)N)NC(=O)[C@H](CCC(N)=O)NC(=O)[C@H](CCC(=O)O)NC(=O)[C@H](C)NC(=O)[C@H](C)NC(=O)CNC(=O)[C@H](CCC(=O)O)NC(=O)[C@H](CCCCNC(=O)COCCOCCNC(=O)COCCOCCNC(=O)CC[C@H](NC(=O)CCCCCCCCCCCCCCCCC(=O)O)C(=O)O)NC(=O)[C@H](CC(C)C)NC(=O)[C@H](CCCNC(=N)N)NC(=O)[C@H](CO)NC(=O)[C@@H](NC(=O)[C@H](CC(=O)O)NC(=O)[C@H](CO)NC(=O)[C@@H](NC(=O)[C@H](Cc1ccccc1)NC(=O)[C@@H](NC(=O)CNC(=O)[C@H](CCC(=O)O)NC(=O)C(C)(C)NC(=O)[C@@H](N)Cc1c[nH]cn1)[C@@H](C)O)[C@@H](C)O)C(C)C)C(=O)N[C@@H](CCC(N)=O)C(=O)N[C@@H](Cc1c[nH]cn1)C(=O)N[C@@H](CC(C)C)C(=O)N[C@H](C(=O)N[C@@H](C)C(=O)N[C@@H](C)C(=O)N[C@@H](CCC(=O)O)C(N)=O)C(C)C [compound 206] (H-H[Aib]EGTFTSDVSRLK([AEEA-AEEA-γGlu-C18 diacid])EGAAEQRFLQHLVAAE-NH2)
Selectivity (GLP1R; [5]): 312500 | EC50 (GLP1R; [6]): 0.0158 nM | EC50 (SCTR; [5]): 5010 nM

Molecule: CC(C)C[C@H](NC(=O)[C@H](Cc1ccccc1)NC(=O)[C@H](CCCNC(=N)N)NC(=O)[C@H](CCC(N)=O)NC(=O)[C@H](CCC(=O)O)NC(=O)[C@H](C)NC(=O)[C@H](C)NC(=O)CNC(=O)[C@H](CCC(=O)O)NC(=O)[C@H](CCCCNC(=O)COCCOCCNC(=O)COCCOCCNC(=O)CC[C@H](NC(=O)CCCCCCCCCCCCCCCCC(=O)O)C(=O)O)NC(=O)[C@H](CC(C)C)NC(=O)[C@H](CCCNC(=N)N)NC(=O)[C@H](CO)NC(=O)[C@@H](NC(=O)[C@H](CC(=O)O)NC(=O)[C@H](CO)NC(=O)[C@@H](NC(=O)[C@H](Cc1ccccc1)NC(=O)[C@@H](NC(=O)CNC(=O)[C@H](CCC(=O)O)NC(=O)C(C)(C)NC(=O)[C@@H](N)Cc1c[nH]cn1)[C@@H](C)O)[C@@H](C)O)C(C)C)C(=O)N[C@@H](CCC(N)=O)C(=O)N[C@@H](Cc1c[nH]cn1)C(=O)N[C@@H](CC(C)C)C(=O)N[C@H](C(=O)N[C@@H](CCC(=O)O)C(=O)N[C@@H](C)C(=O)N[C@@H](CCC(=O)O)C(N)=O)C(C)C [compound 204] (H-H[Aib]EGTFTSDVSRLK([AEEA-AEEA-γGlu-C18 diacid])EGAAEQRFLQHLVEAE-NH2)
Selectivity (GLP1R; [5]): 285714 | EC50 (GLP1R; [6]): 0.01 nM | EC50 (SCTR; [5]): 2510 nM

B1: SEQ ID NO: 186 (peptide)
peptide: H[Aib]EGTFTSDWSRLLEGAALQRFIQWLV-NH2
modifications: N-terminus assumed
SMILES: CC[C@H](C)[C@H](NC(=O)[C@H](Cc1ccccc1)NC(=O)[C@H](CCCNC(=N)N)NC(=O)[C@H](CCC(N)=O)NC(=O)[C@H](CC(C)C)NC(=O)[C@H](C)NC(=O)[C@H](C)NC(=O)CNC(=O)[C@H](CCC(=O)O)NC(=O)[C@H](CC(C)C)NC(=O)[C@H](CC(C)C)NC(=O)[C@H](CCCNC(=N)N)NC(=O)[C@H](CO)NC(=O)[C@H](Cc1c[nH]c2ccccc12)NC(=O)[C@H](CC(=O)O)NC(=O)[C@H](CO)NC(=O)[C@@H](NC(=O)[C@H](Cc1ccccc1)NC(=O)[C@@H](NC(=O)CNC(=O)[C@H](CCC(=O)O)NC(=O)C(C)(C)NC(=O)[C@@H](N)Cc1c[nH]cn1)[C@@H](C)O)[C@@H](C)O)C(=O)N[C@@H](CCC(N)=O)C(=O)N[C@@H](Cc1c[nH]c2ccccc12)C(=O)N[C@@H](CC(C)C)C(=O)N[C@H](C(N)=O)C(C)C
pEC50 hSCTR [1]: 8.2 -log M
